In ChEMBL document CHEMBL1140491, “Amino-caprolactam derivatives as gamma-secretase inhibitors” (Bioorg Med Chem Lett, 2007) one finds Kp and concentration data, which are given here for 2 compounds.

A short description of series [1]: Ratio of drug level in brain to plasma in Tg2576 mouse at 200 mg/kg, po after 3 hrs.
A short description of series [2]: Drug level in Tg2576 mouse brain at 200 µmol/kg, po after 3 hrs. Conditions: read-out: Drug uptake.
Series [3] can be described thus: Drug level in Tg2576 mouse plasma at 200 µmol/kg, po after 3 hrs.

Usually Kp stands for the ratio of the level in a tissue or fluid to that in plasma or blood. On to `COc1ccc(CN([C@@H]2CCCCNC2=O)S(=O)(=O)c2ccc(Cl)cc2)cc1`, for which, in series [1], the Kp at 3 h came to 7. In addition, the concentration at 3 h stood at 2200 nM in series [2] and 280 nM in series [3].
Turning to `CN(C)c1ccc(CN([C@@H]2CCCCNC2=O)S(=O)(=O)c2ccc(Cl)cc2)cc1`, the Kp at 3 h in series [1] stood at 2.8. Besides, the figures for the concentration at 3 h in series [2] and in series [3] were 4200 nM and 1600 nM, respectively.
